Measured values reported in PubChem BioAssay AID1919017 (Molecular Pharmacology Branch, DTP, NCI, 2023).
pIC50: −log10 of the molar value.

Tested on: SW1271 complex spheroids with HUVEC/MSC, growth, % test/control
Test: Anticancer human tumor SW1271 cell line growth inhibition [AhR];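 note: spheroids exposed to agents for 7 days before readout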
Settings: for pIC50: curve of first compound; for viability, T/C: stronger effect = lower value
Summary of the method: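 Complex tumor spheroids co-cultured with HUVEC and human MSC stroma; AhR antagonists tested in combination with standard-of-care and investigational agents. Top concentration at or near clinical Cmax (else 10 microM), half-log dilutions; growth expressed as percent test/control.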

[1] = second compound 0.1 µM, first compound 0.000949 µM
[2] = second compound 0.1 µM, first compound 0.003 µM
[3] = second compound 0.1 µM, first compound 0.00949 µM
[4] = second compound 0.1 µM, first compound 0.03 µM
[5] = second compound 0.1 µM, first compound 0.0949 µM
[6] = second compound 0.1 µM, first compound 0.3 µM
[7] = second compound 0.316 µM, first compound 0.000949 µM
[8] = second compound 0.316 µM, first compound 0.003 µM
[9] = second compound 0.316 µM, first compound 0.00949 µM
[10] = second compound 0.316 µM, first compound 0.03 µM
[11] = second compound 0.316 µM, first compound 0.0949 µM
[12] = second compound 0.316 µM, first compound 0.3 µM
[13] = second compound 1 µM, first compound 0.000949 µM
[14] = second compound 1 µM, first compound 0.003 µM
[15] = second compound 1 µM, first compound 0.00949 µM
[16] = second compound 1 µM, first compound 0.03 µM
[17] = second compound 1 µM, first compound 0.0949 µM
[18] = second compound 1 µM, first compound 0.3 µM
[19] = second compound 3.16 µM, first compound 0.000949 µM
[20] = second compound 3.16 µM, first compound 0.003 µM
[21] = second compound 3.16 µM, first compound 0.00949 µM
[22] = second compound 3.16 µM, first compound 0.03 µM
[23] = second compound 3.16 µM, first compound 0.0949 µM
[24] = second compound 3.16 µM, first compound 0.3 µM
[25] = second compound 10 µM, first compound 0.000949 µM
[26] = second compound 10 µM, first compound 0.003 µM
[27] = second compound 10 µM, first compound 0.00949 µM
[28] = second compound 10 µM, first compound 0.03 µM
[29] = second compound 10 µM, first compound 0.0949 µM
[30] = second compound 10 µM, first compound 0.3 µM

## CC(C)CC(NC(=O)C(Cc1ccccc1)NC(=O)c1cnccn1)B(O)O (stereo not given) + Cc1cncc(-c2nc(NCCc3c[nH]c4ccccc34)c3ncn(C(C)C)c3n2)c1
Second compound 0.1 µM
  pIC50: 8.21
Second compound 0.316 µM
  pIC50: 8.24
Second compound 1 µM
  pIC50: 8.21
Second compound 3.16 µM
  pIC50: 8.25
Second compound 10 µM
  pIC50: 8.40
[1]
  viability, T/C: 122%
[2]
  viability, T/C: 112%
[3]
  viability, T/C: 11.9%
[4]
  viability, T/C: 0.91%
[5]
  viability, T/C: 0.33%
[6]
  viability, T/C: 0.46%
[7]
  viability, T/C: 84.3%
[8]
  viability, T/C: 113%
[9]
  viability, T/C: 11.3%
[10]
  viability, T/C: 0.73%
[11]
  viability, T/C: 0.67%
[12]
  viability, T/C: 0.41%
[13]
  viability, T/C: 113%
[14]
  viability, T/C: 112%
[15]
  viability, T/C: 13.4%
[16]
  viability, T/C: 1.13%
[17]
  viability, T/C: 0.75%
[18]
  viability, T/C: 0.48%
[19]
  viability, T/C: 107%
[20]
  viability, T/C: 102%
[21]
  viability, T/C: 5.96%
[22]
  viability, T/C: 0.63%
[23]
  viability, T/C: 0.88%
[24]
  viability, T/C: 0.55%
[25]
  viability, T/C: 62.2%
[26]
  viability, T/C: 69.2%
[27]
  viability, T/C: 0.81%
[28]
  viability, T/C: 0.31%
[29]
  viability, T/C: 0.34%
[30]
  viability, T/C: 0.3%

## CCc1c2c(nc3ccc(O)cc13)-c1cc3c(c(=O)n1C2)COC(=O)[C@]3(O)CC + Cc1cncc(-c2nc(NCCc3c[nH]c4ccccc34)c3ncn(C(C)C)c3n2)c1
Second compound 0.1 µM
  pIC50: < 6.52
Second compound 0.316 µM
  pIC50: < 6.52
Second compound 1 µM
  pIC50: 6.59
Second compound 3.16 µM
  pIC50: 6.79
Second compound 10 µM
  pIC50: 8.74
[1]
  viability, T/C: 86.5%
[2]
  viability, T/C: 92.8%
[3]
  viability, T/C: 76.6%
[4]
  viability, T/C: 57.4%
[5]
  viability, T/C: 59.5%
[6]
  viability, T/C: 57.8%
[7]
  viability, T/C: 69.5%
[8]
  viability, T/C: 79.8%
[9]
  viability, T/C: 83%
[10]
  viability, T/C: 58.1%
[11]
  viability, T/C: 52.2%
[12]
  viability, T/C: 48.9%
[13]
  viability, T/C: 116%
[14]
  viability, T/C: 104%
[15]
  viability, T/C: 71%
[16]
  viability, T/C: 74.2%
[17]
  viability, T/C: 64.1%
[18]
  viability, T/C: 50.3%
[19]
  viability, T/C: 92%
[20]
  viability, T/C: 90.2%
[21]
  viability, T/C: 75.2%
[22]
  viability, T/C: 63.6%
[23]
  viability, T/C: 60.8%
[24]
  viability, T/C: 41.5%
[25]
  viability, T/C: 55.5%
[26]
  viability, T/C: 45%
[27]
  viability, T/C: 37.2%
[28]
  viability, T/C: 27.9%
[29]
  viability, T/C: 24%
[30]
  viability, T/C: 25.9%

## COc1cc(Nc2ncc3c(n2)-c2ccc(Cl)cc2C(c2c(F)cccc2OC)=NC3)ccc1C(=O)O + Cc1cncc(-c2nc(NCCc3c[nH]c4ccccc34)c3ncn(C(C)C)c3n2)c1
Second compound 0.1 µM
  pIC50: < 5.00
Second compound 0.316 µM
  pIC50: < 5.00
Second compound 1 µM
  pIC50: < 5.00
Second compound 3.16 µM
  pIC50: < 5.00
Second compound 10 µM
  pIC50: > 7.50
Second compound 0.1 µM, first compound 0.0316 µM
  viability, T/C: 92.7%
Second compound 0.1 µM, first compound 0.1 µM
  viability, T/C: 91.6%
Second compound 0.1 µM, first compound 0.316 µM
  viability, T/C: 98.6%
Second compound 0.1 µM, first compound 1 µM
  viability, T/C: 93.9%
Second compound 0.1 µM, first compound 3.16 µM
  viability, T/C: 78.3%
Second compound 0.1 µM, first compound 10 µM
  viability, T/C: 67.7%
Second compound 0.316 µM, first compound 0.0316 µM
  viability, T/C: 91%
Second compound 0.316 µM, first compound 0.1 µM
  viability, T/C: 87.8%
Second compound 0.316 µM, first compound 0.316 µM
  viability, T/C: 92%
Second compound 0.316 µM, first compound 1 µM
  viability, T/C: 91%
Second compound 0.316 µM, first compound 3.16 µM
  viability, T/C: 98.4%
Second compound 0.316 µM, first compound 10 µM
  viability, T/C: 57.5%
Second compound 1 µM, first compound 0.0316 µM
  viability, T/C: 81.5%
Second compound 1 µM, first compound 0.1 µM
  viability, T/C: 87.2%
Second compound 1 µM, first compound 0.316 µM
  viability, T/C: 88.2%
Second compound 1 µM, first compound 1 µM
  viability, T/C: 88.6%
Second compound 1 µM, first compound 3.16 µM
  viability, T/C: 81.3%
Second compound 1 µM, first compound 10 µM
  viability, T/C: 56.2%
Second compound 3.16 µM, first compound 0.0316 µM
  viability, T/C: 95.1%
Second compound 3.16 µM, first compound 0.1 µM
  viability, T/C: 87.5%
Second compound 3.16 µM, first compound 0.316 µM
  viability, T/C: 91.9%
Second compound 3.16 µM, first compound 1 µM
  viability, T/C: 102%
Second compound 3.16 µM, first compound 3.16 µM
  viability, T/C: 78.9%
Second compound 3.16 µM, first compound 10 µM
  viability, T/C: 67.9%
Second compound 10 µM, first compound 0.0316 µM
  viability, T/C: 36.1%
Second compound 10 µM, first compound 0.1 µM
  viability, T/C: 50.7%
Second compound 10 µM, first compound 0.316 µM
  viability, T/C: 49.5%
Second compound 10 µM, first compound 1 µM
  viability, T/C: 50.1%
Second compound 10 µM, first compound 3.16 µM
  viability, T/C: 42.5%
Second compound 10 µM, first compound 10 µM
  viability, T/C: 40.4%
